Reference: paper PMC9655037, “Alternation of Organ-Specific Exposure in LPS-Induced Pneumonia Mice after the Inhalation of Tetrandrine Is Governed by Metabolizing Enzyme Suppression and Lysosomal Trapping” (International Journal of Molecular Sciences, 2022)
Several values for one entry are separate records, joined by “and”; a condition that tells them apart may be missing. Identical values can stand only once.

Assay: Tissue distribution of TET after a single i.t. administration in normal and LPS-treated mice
Conditions: for Kp / AUC(0-inf) / Cmax / MRT / Tmax / half-life / AUC(0-t): BALB/c, mouse; for Kp: other: intratracheal (i.t.), Kp (AUC in tissue divided by AUC in blood); for Kp / AUC(0-inf) / Cmax / MRT / Tmax / half-life / AUC(0-t) / Kp (AUC in tissue divided by AUC in blood): 15 mg/kg, 15 mg/kg i.t.; for AUC(0-inf) / Cmax / MRT / Tmax / half-life / AUC(0-t): inhaled or intranasal
Experimental: The different tissue distribution characteristics of TET in normal and pneumonia model mice via i.t. delivery were investigated. Thirty BALB/c mice were randomly divided into ten groups (n = 3 for each group). Five groups of mice were intratracheally injected with 15 mg/kg TET (dissolved in 22.5 mg/mL aspartic acid solution) as control groups, and the other five groups received i.t. administration of 15 mg/kg TET 6 h after i.t. injection of 50 μL LPS (5 mg/mL) as model groups. One control group and one model group were sacrificed simultaneously at the set time points of 2, 4, 8, 24, and 144 h after the administration of TET. After a cardiac puncture to obtain blood samples, tissue samples including heart, liver, spleen, lung, kidney, stomach, intestine, and brain were immediately harvested and all the tissues were thoroughly rinsed in ice physiological saline. All the tissue samples were weighed and stored with blood samples at −40 °C for LC-MS/MS analysis.
Pharmacokinetic parameters including t1/2, AUC(0-t), AUC(0-∞), and MRT were calculated using WinNonlin 7.0 (Pharsight, CA) by the non-compartmental model. Initial plasma concentration post i.v. (C0-i.v.) was extrapolated from the first three points of the logarithmic plasma concentration. The area under the blood concentration–time curve from t = 0 to infinity (AUCinf) was estimated using the linear trapezoidal rule. Blood clearance (CL) was calculated as the i.v. dose divided by AUCinf. Apparent steady-state distribution volume (Vss) was determined by the clearance multiplied by mean residence time. The distribution volume in the elimination phase (Vz) was determined by the clearance divided by the first-order rate constant of the terminal elimination phase (λz). The tissue partition ratio (Kp) of each tissue was calculated as Equation (1). (1) Kp=AUC(0−∞,tissue)/AUC(0−∞,plasma)

## COc1ccc2cc1Oc1ccc(cc1)C[C@H]1c3cc(c(OC)cc3CCN1C)Oc1c(OC)c(OC)cc3c1[C@H](C2)N(C)CC3 [TET, Tetrandrine]
Adipose / blood, LPS-treated mice, adipose
  Kp: 2.6
Adipose / blood, normal mice, adipose
  Kp: 2.4
adipose, LPS-treated mice
  AUC(0-inf): 816 ± 429 µg·h/mL
  Cmax: 5920 ± 1410 ng/mL
  MRT: 102 ± 57.9 h
  Tmax: 18.7 ± 9.24 h
adipose, normal mice
  AUC(0-inf): 501 ± 88.3 µg·h/mL
  Cmax: 7380 ± 1790 ng/mL
  MRT: 67.7 ± 37.1 h
  Tmax: 5.33 ± 2.31 h
adipose, t1/2, LPS-treated mice
  half-life: 75.2 ± 35.2 h
adipose, t1/2, normal mice
  half-life: 54 ± 21.5 h
blood, LPS-treated mice
  AUC(0-inf): 326 ± 12.9 µg·h/mL
  Cmax: 1940 ± 225 ng/mL
  MRT: 133 ± 26.1 h
  Tmax: 24 h
blood, normal mice
  AUC(0-inf): 249 ± 16.4 µg·h/mL
  Cmax: 2670 ± 50 ng/mL
  MRT: 111 ± 23.1 h
  Tmax: 3.33 ± 1.15 h
blood, t1/2, LPS-treated mice
  half-life: 95.5 ± 17.6 h
blood, t1/2, normal mice
  half-life: 83.2 ± 15.4 h
blood, LPS-treated mice, blood
  Kp: 1
blood, normal mice, blood
  Kp: 1
Brain / blood, LPS-treated mice, brain
  Kp: 0.6
Brain / blood, normal mice, brain
  Kp: 1
brain, LPS-treated mice
  AUC(0-inf): 179 ± 38.4 µg·h/mL
  Cmax: 6430 ± 3790 ng/mL
  MRT: 112 ± 35.4 h
  Tmax: 5.33 ± 2.31 h
brain, normal mice
  AUC(0-inf): 190 ± 51.4 µg·h/mL
  Cmax: 10400 ± 9530 ng/mL
  MRT: 56.8 ± 26.5 h
  Tmax: 2 h
brain, t1/2, LPS-treated mice
  half-life: 92.6 ± 27.2 h
brain, t1/2, normal mice
  half-life: 51.6 ± 17.2 h
Heart / blood, LPS-treated mice, heart
  Kp: 4.3
Heart / blood, normal mice, heart
  Kp: 5.1
heart, LPS-treated mice
  AUC(0-t): 940 ± 381 µg·h/mL
  AUC(0-inf): 4090 ± 3400 µg·h/mL
  Cmax: 10800 ± 4010 ng/mL
  MRT: 643 ± 376 h
  Tmax: 4 h
heart, normal mice
  AUC(0-t): 880 ± 22.2 µg·h/mL
  AUC(0-inf): 1410 ± 21.5 µg·h/mL
  Cmax: 14200 ± 3160 ng/mL
  MRT: 137 ± 0.09 h
  Tmax: 2.67 ± 1.15 h
heart, t1/2, LPS-treated mice
  half-life: 449 ± 259 h
heart, t1/2, normal mice
  half-life: 96.8 ± 6.46 h
In vivo, LPS-treated mice, adipose
  AUC(0-t): 566 ± 163 µg·h/mL
In vivo, LPS-treated mice, blood
  AUC(0-t): 219 ± 17.7 µg·h/mL
In vivo, LPS-treated mice, brain
  AUC(0-t): 129 ± 46.2 µg·h/mL
In vivo, LPS-treated mice, kidney
  AUC(0-t): 7940 ± 1170 µg·h/mL
In vivo, LPS-treated mice, liver
  AUC(0-t): 5890 ± 178 µg·h/mL
In vivo, LPS-treated mice, muscle
  AUC(0-t): 483 ± 89.5 µg·h/mL
In vivo, LPS-treated mice, spleen
  AUC(0-t): 9420 ± 942 µg·h/mL
In vivo, normal mice, adipose
  AUC(0-t): 421 ± 94.4 µg·h/mL
In vivo, normal mice, blood
  AUC(0-t): 175 ± 12.3 µg·h/mL
In vivo, normal mice, brain
  AUC(0-t): 168 ± 60.6 µg·h/mL
In vivo, normal mice, intestine
  AUC(0-t): 1460 ± 134 µg·h/mL
In vivo, normal mice, kidney
  AUC(0-t): 6510 ± 691 µg·h/mL
In vivo, normal mice, liver
  AUC(0-t): 4860 ± 334 µg·h/mL
In vivo, normal mice, lung
  AUC(0-t): 4310 ± 1000 µg·h/mL
In vivo, normal mice, muscle
  AUC(0-t): 359 ± 79.8 µg·h/mL
In vivo, normal mice, spleen
  AUC(0-t): 7940 ± 665 µg·h/mL
In vivo, normal mice, stomach
  AUC(0-t): 929 ± 163 µg·h/mL
Intestine / blood, normal mice, intestine
  Kp: 8.3
intestine, LPS-treated mice
  AUC(0-t): 2390 ± 196 µg·h/mL
  AUC(0-inf): 2590 ± 271 µg·h/mL
  Cmax: 76500 ± 10900 ng/mL
  MRT: 42.4 ± 6.38 h
  Tmax: 2 h
intestine, normal mice
  AUC(0-inf): 1630 ± 130 µg·h/mL
  Cmax: 46700 ± 25900 ng/mL
  MRT: 50.5 ± 2.31 h
  Tmax: 4 h
intestine, t1/2, LPS-treated mice
  half-life: 41.7 ± 4.93 h
intestine, t1/2, normal mice
  half-life: 44.7 ± 1.94 h
intestine, LPS-treated mice, intestine
  Kp: 11 ± 1.35
kidney, LPS-treated mice
  AUC(0-inf): 11000 µg·h/mL
  Cmax: 112000 ± 11500 ng/mL
  MRT: 101 ± 30 h
  Tmax: 5.33 ± 2.31 h
kidney, normal mice
  AUC(0-inf): 8160 ± 422 µg·h/mL
  Cmax: 107000 ± 16600 ng/mL
  MRT: 80.1 ± 16.6 h
  Tmax: 3.33 ± 1.15 h
kidney, t1/2, LPS-treated mice
  half-life: 77.8 ± 18.1 h
kidney, t1/2, normal mice
  half-life: 63.4 ± 8.09 h
kidney, LPS-treated mice, kidney
  Kp: 36.2 ± 3.83
kidney, normal mice, kidney
  Kp: 37.5 ± 5.7
liver, LPS-treated mice
  AUC(0-inf): 7430 ± 632 µg·h/mL
  Cmax: 76300 ± 7020 ng/mL
  MRT: 82.1 ± 15.6 h
  Tmax: 3.33 ± 1.15 h
liver, normal mice
  AUC(0-inf): 5480 ± 237 µg·h/mL
  Cmax: 83300 ± 9290 ng/mL
  MRT: 53.9 ± 8.29 h
  Tmax: 4 h
liver, t1/2, LPS-treated mice
  half-life: 69.3 ± 14.8 h
liver, t1/2, normal mice
  half-life: 47.5 ± 5.47 h
liver, LPS-treated mice, liver
  Kp: 27 ± 1.72
liver, normal mice, liver
  Kp: 28 ± 3.49
lung, LPS-treated mice
  AUC(0-t): 10000 µg·h/mL
  Cmax: ≥ 96200 ng/mL
  Tmax: ≥ 144 h
lung, normal mice
  AUC(0-inf): 5300 ± 721 µg·h/mL
  Cmax: 60300 ± 3210 ng/mL
  MRT: 78.3 ± 24.5 h
  Tmax: 13.3 ± 9.24 h
lung, t1/2, normal mice
  half-life: 65.1 ± 18.3 h
lung, LPS-treated mice, lung
  Kp: 45.8 ± 6.49
lung, normal mice, lung
  Kp: 24.7 ± 6.06
Muscle / blood, normal mice, muscle
  Kp: 2
muscle, LPS-treated mice
  AUC(0-inf): 674 ± 240 µg·h/mL
  Cmax: 7510 ± 2110 ng/mL
  MRT: 101 ± 44.4 h
  Tmax: 6.67 ± 2.31 h
muscle, normal mice
  AUC(0-inf): 410 ± 80.1 µg·h/mL
  Cmax: 6120 ± 440 ng/mL
  MRT: 57.7 ± 7.81 h
  Tmax: 4 ± 3.16 h
muscle, t1/2, LPS-treated mice
  half-life: 78.8 ± 31.3 h
muscle, t1/2, normal mice
  half-life: 49.2 ± 4.06 h
muscle, LPS-treated mice, muscle
  Kp: 2.2 ± 0.31
spleen, LPS-treated mice
  AUC(0-inf): 16000 µg·h/mL
  Cmax: 89700 ± 10700 ng/mL
  MRT: 157 ± 29.5 h
  Tmax: 17.3 ± 11.5 h
spleen, normal mice
  AUC(0-inf): 11300 µg·h/mL
  Cmax: 89700 ± 7090 ng/mL
  MRT: 112 ± 34.7 h
  Tmax: 12 ± 10.6 h
spleen, t1/2, LPS-treated mice
  half-life: 111 ± 18.3 h
spleen, t1/2, normal mice
  half-life: 83.8 ± 22.7 h
spleen, LPS-treated mice, spleen
  Kp: 43.3 ± 6.88
spleen, normal mice, spleen
  Kp: 45.7 ± 6.62
Stomach / blood, LPS-treated mice, stomach
  Kp: 6.1
Stomach / blood, normal mice, stomach
  Kp: 5.3
stomach, LPS-treated mice
  AUC(0-t): 1340 ± 192 µg·h/mL
  AUC(0-inf): 1640 ± 323 µg·h/mL
  Cmax: 27200 ± 9320 ng/mL
  MRT: 73.3 ± 17.7 h
  Tmax: 3.33 ± 1.15 h
stomach, normal mice
  AUC(0-inf): 1120 ± 207 µg·h/mL
  Cmax: 22300 ± 12400 ng/mL
  MRT: 70 ± 14 h
  Tmax: 4.67 ± 3.06 h
stomach, t1/2, LPS-treated mice
  half-life: 61.4 ± 13 h
stomach, t1/2, normal mice
  half-life: 64 ± 16.5 h
LPS-treated mice, adipose
  Kp (AUC in tissue divided by AUC in blood): 2.57 ± 0.62
LPS-treated mice, brain
  Kp (AUC in tissue divided by AUC in blood): 0.59 ± 0.17
LPS-treated mice, heart
  Kp (AUC in tissue divided by AUC in blood): 4.27 ± 1.59
LPS-treated mice, stomach
  Kp (AUC in tissue divided by AUC in blood): 6.13 ± 0.87
TET inhalation (i.t.) administration
  lung AUC ratio, acutely inflamed vs normal mice: 2.32
i.t. route
  increase in systemic blood exposure (blood AUC ratio), LPS group vs normal/saline group: ~ 1.25 fold and 1.25 fold
Normal mice, adipose
  Kp (AUC in tissue divided by AUC in blood): 2.39 ± 0.40
Normal mice, brain
  Kp (AUC in tissue divided by AUC in blood): 0.97 ± 0.39
Normal mice, heart
  Kp (AUC in tissue divided by AUC in blood): 5.05 ± 0.38
Normal mice, intestine
  Kp (AUC in tissue divided by AUC in blood): 8.35 ± 0.67
Normal mice, muscle
  Kp (AUC in tissue divided by AUC in blood): 2.04 ± 0.38
Normal mice, stomach
  Kp (AUC in tissue divided by AUC in blood): 5.29 ± 0.66
